SMILES strings stand for the structures.

One assay has as its system NCI-N87 tumor cells. Put plainly: In vitro proliferation inhibitory activity of compounds of Formula (GH) on NCI-N87 tumor cells (CCK8). The class given is cell-based, human. The conditions noted are these: 6 days of culture, CCK8; read-out: IC50 for inhibiting proliferation of NCI-N87 cells in vitro. The procedure:
The objective of this experiment is to detect the in vitro killing activity of the compound of Formula (GH) disclosed in the present invention on NCI-N87 tumor cells (human gastric cancer cells, Cell Resource Center, Institute of Basic Medicine, Chinese Academy of Medical Sciences, Catalog No. 3111C0001CCC000481). The cells were treated with different concentrations of the compound in vitro, and after 6 days of culture, the number of viable cells was detected using CCK8 (Cell Counting Kit-8, Catalog No. TS547) reagents, and the in vitro activity of the test compound was evaluated according to the IC50 value.
• (1) Cell culture: NCI-N87 cells were cultured in the RPMI 1640 medium containing 2% FBS (Shanghai BasalMedia Technologies Co., Ltd., Catalog No. L210KJ). • (2) Cell preparation: NCI-N87 cells in the logarithmic growth phase were taken, washed once with PBS (phosphate buffered saline, Shanghai BasalMedia Technologies Co., Ltd., Catalog No. E211004), added with 1 mL of trypsin (0.25% Trypsin-EDTA (1×), Shanghai BasalMedia Technologies Co., Ltd., Catalog No. A121002) to allow digestion for 2 to 3 minutes. After the cells were completely digested, 10 mL of the cell culture medium was added to wash off and obtain the digested cells, centrifugation was performed at 300 times gravitational acceleration (g) for 5 min, the supernatant was discarded, then 10 mL of PBS was added to wash the cells once, centrifugation was performed at 300 times gravitational acceleration (g) for 5 minutes, the supernatant was discarded, and 10 mL of the cell culture medium containing 2% FBS was added to resuspend the cells to prepare a single cell suspension. • (3) Cell plating: The NCI-N87 single cell suspension was mixed, the density of live cells was adjusted to 3×10^4 cells/mL with 2% FBS cell culture medium, the cell suspension after density adjustment was mixed well, and added to a 96-well cell culture plate at 100 μL/well. Only 200 μL of PBS was added to each of the peripheral wells of the 96-well plate. The plate was incubated in an incubator for 24 hours (37° C., 5% CO2). • (4) Preparation of sample to be tested:
The sample to be tested was diluted to 3200 nM with cell culture medium containing 2% FBS, then 300 μL of the sample was added to the first well of a 96-well U-bottomed plate with a sample concentration of 3200 nM; and 210 μL of cell culture medium containing 2% FBS was added to each well of the second to tenth columns. 70 μL of the sample was taken from the first column and added to the 210 μL cell culture medium in the second column and mixed well, 70 μL was taken and added to the third column, and so on to the ninth column. • (5) Sample loading operation: 100 μL of the sample to be tested with different concentrations was added to the culture plate, two replicate wells were set for each sample. The culture plate was incubated in an incubator for 6 days (37° C., 5% CO2). • (6) Color development operation: The 96-well cell culture plate was taken out, the supernatant of the culture medium was removed by tapping, 100 μL of 10% CCK8 (prepared with RPMI 1640 basal culture medium, without FBS) solution was added to each well, and incubation was performed in an incubator for 2 hours. • (7) Plate reading operation: The 96-well cell culture plate was taken out, placed in an ELISA reader (SpectraMax i3X), and A450 was determined by the ELISA reader. • (8) Data analysis: Microsoft Excel and Graphpad Prism 5 were used to process and analyze the data.
`CC[C@@]1(O)C(=O)OCc2c1cc1n(c2=O)Cc2c-1nc1cc(F)c(C)c3c1c2[C@@H](NC(=O)CO)CC3` [Dxd, reference compound]: the IC50 is 10.2 nM.

Staying with this assay, now noted: Homo sapiens, NCI-N87; 6 days of culture, CCK8; read-out: IC50 for inhibiting proliferation of NCI-N87 cells in vitro.
On to `Cc1c(F)cc2nc3c(c4c2c1CC[C@@H]4NC(=O)CO)Cn1c-3cc2c(c1=O)COC(=O)[C@]2(O)CC1CC1` [Compound 1-B, N-((1S,9S)-9-(cyclopropylmethyl)-5-fluoro-9-hydroxy-4-methyl-10,13-dioxo-2,3,9,10,13,15-hexahydro-1H,12H-benzo[de]pyrano[3′,4′:6,7]indolizino[1,2-b]quinolin-1-yl)-2-hydroxyacetamide], for which the IC50 was 5.36 nM. For the molecule `Cc1c(F)cc2nc3c(c4c2c1CC[C@@H]4NC(=O)[C@H](C)O)Cn1c-3cc2c(c1=O)COC(=O)[C@]2(O)CC1CC1` [Compound 2-A, (S)-N-((1S,9S)-9-(Cyclopropylmethyl)-5-fluoro-9-hydroxy-4-methyl-10,13-dioxo-2,3,9,10,13,15-hexahydro-1H,12H-benzo[de]pyrano[3′,4′:6,7]indolizino[1,2-b]quinolin-1-yl)-2-hydroxypropanamide], the IC50 amounted to 1.92 nM.

In a further assay the test system is SK-BR-3 tumor cells. Put plainly: In vitro proliferation inhibitory activity of compounds of Formula (GH) on SK-BR-3 tumor cells (CCK8). It counts as cell-based. The conditions noted are these: Homo sapiens, SK-BR-3, 72 h, 3 days of culture, read-out: IC50 for inhibiting proliferation of SK-BR-3 cells in vitro. The procedure:
The objective of this experiment is to detect the in vitro killing activity of the compound of Formula (GH) of the present disclosure on SK-BR-3 tumor cells (human breast cancer cells, Wuhan Procell, Catalog No. CL-0211). The cells were treated with different concentrations of the compound in vitro. After 3 days of culture, the number of viable cells was detected using CCK8 (Cell Counting Kit-8, Catalog No. TS547) reagents, and the in vitro activity of the test compound was evaluated according to the IC50 value.
Taking the test method of in vitro killing activity on SK-BR-3 cells as an example, the following test was performed. […] After the cells were completely digested, 10 mL of cell culture medium containing 2% FBS was added to wash out the digested cells, centrifugation was performed at 300 g for 5 min, the supernatant was discarded, and then 10 to 20 mL of cell culture medium containing 2% FBS was added to resuspend the cells to prepare a single cell suspension. • (3) Cell plating: The SK-BR-3 single cell suspension was mixed well, the viable cell density was adjusted to 6×10^4 cells/mL with the cell culture medium containing 2% FBS, the cell suspension after density adjustment was mixed well, and added to a 96-well cell culture plate at 100 μL/well. Only 200 μL of PBS was added to the peripheral wells of the 96-well plate. The culture plate was incubated in an incubator for 24 hours (37° C., 5% CO2). • (4) Compound preparation: The compound was dissolved in DMSO (dimethyl sulfoxide, SIGMA) to prepare a 2 mM stock solution.
The starting concentrations of small molecule compounds and Dxd were both 600 nM, and the preparation method was as follows.
Then, 315 μL of different samples to be tested were added to the first column of a 96-well U-bottomed drug distribution plate, and the sample concentration was 1200 nM; 210 μL of the cell culture medium containing 2% FBS was added to each well of the second to tenth columns. 105 μL of the sample was taken from the first column and added to the 210 μL cell culture medium in the second column and mixed well, and 105 μL was taken and added to the third column, and so on to the tenth column. • (5) Sample loading operation: 100 μL of the sample to be tested of different concentrations was added to the culture plate, and two replicate wells were set for each sample. The culture plate was incubated in an incubator for 3 days (37° C., 5% CO2). • (6) Color development operation: The 96-well cell culture plate was taken out, the cell culture supernatant was removed by tapping, 100 μL of the RPMI 1640 basal medium (without FBS) containing 10% CCK8 was added, and then it was incubated in an incubator for about 1.5 hours (37° C., 5% CO2). • (7) Plate reading operation: The 96-well cell culture plate was taken out, placed in an ELISA reader (MD SpectraMax i3X), and A450 was determined by the ELISA reader. • (8) Data analysis: Microsoft Excel and Graphpad Prism 5 were used to process and analyze the data.
On to `Cc1c(F)cc2nc3c(c4c2c1CC[C@H]4NC(=O)CO)Cn1c-3cc2c(c1=O)COC(=O)[C@]2(O)CC1CC1` [Compound 1-A, N-((1R,9S)-9-(cyclopropylmethyl)-5-fluoro-9-hydroxy-4-methyl-10,13-dioxo-2,3,9,10,13,15-hexahydro-1H,12H-benzo[de]pyrano[3′,4′:6,7]indolizino[1,2-b]quinolin-1-yl)-2-hydroxyacetamide], for which the IC50 came out at 0.93 nM. Still for that read-out and setting: the result for `Cc1c(F)cc2nc3c(c4c2c1CC[C@@H]4NC(=O)CO)Cn1c-3cc2c(c1=O)COC(=O)[C@]2(O)CC1CC1` [Compound 1-B, N-((1S,9S)-9-(cyclopropylmethyl)-5-fluoro-9-hydroxy-4-methyl-10,13-dioxo-2,3,9,10,13,15-hexahydro-1H,12H-benzo[de]pyrano[3′,4′:6,7]indolizino[1,2-b]quinolin-1-yl)-2-hydroxyacetamide] reads 1.94 nM; that for `Cc1c(F)cc2nc3c(c4c2c1CC[C@@H]4NC(=O)[C@H](C)O)Cn1c-3cc2c(c1=O)COC(=O)[C@]2(O)CC1CC1` [Compound 2-A, (S)-N-((1S,9S)-9-(Cyclopropylmethyl)-5-fluoro-9-hydroxy-4-methyl-10,13-dioxo-2,3,9,10,13,15-hexahydro-1H,12H-benzo[de]pyrano[3′,4′:6,7]indolizino[1,2-b]quinolin-1-yl)-2-hydroxypropanamide], 5.88 nM.

Take `Cc1c(F)cc2nc3c(c4c2c1CC[C@H]4NC(=O)[C@H](C)O)Cn1c-3cc2c(c1=O)COC(=O)[C@]2(O)CC1CC1` [Compound 2-B, (S)-N-((1R,9S)-9-(Cyclopropylmethyl)-5-fluoro-9-hydroxy-4-methyl-10,13-dioxo-2,3,9,10,13,15-hexahydro-1H,12H-benzo[de]pyrano[3′,4′:6,7]indolizino[1,2-b]quinolin-1-yl)-2-hydroxypropanamide]: the IC50 stood at 12 nM. Still for that read-out and setting: the result for `Cc1c(F)cc2nc3c(c4c2c1CC[C@H]4NC(=O)[C@@H](C)O)Cn1c-3cc2c(c1=O)COC(=O)[C@]2(O)CC1CC1` [Compound 3-B, (R)-N-((1R,9S)-9-(cyclopropylmethyl)-5-fluoro-9-hydroxy-4-methyl-10,13-dioxo-2,3,9,10,13,15-hexahydro-1H,12H-benzo[de]pyrano[3′,4′:6,7]indolizino[1,2-b]quinolin-1-yl)-2-hydroxypropanamide] reads 2.36 nM; that for `Cc1c(F)cc2nc3c(c4c2c1CC[C@H]4NC(=O)[C@@H](O)C1CC1)Cn1c-3cc2c(c1=O)COC(=O)[C@]2(O)CC1CC1` [Compound 4-B, (S)-2-cyclopropyl-N-((1R,9S)-9-(cyclopropylmethyl)-5-fluoro-9-hydroxy-4-methyl-10,13-dioxo-2,3,9,10,13,15-hexahydro-1H,12H-benzo[de]pyrano[3′,4′:6,7]indolizino[1,2-b]quinolin-1-yl)-2-hydroxyacetamide], 5.01 nM. Same read-out and setting: the result for `Cc1c(F)cc2nc3c(c4c2c1CC[C@@H]4NC(=O)[C@H](O)C1CC1)Cn1c-3cc2c(c1=O)COC(=O)[C@]2(O)CC1CC1` [Compound 5-A, (R)-2-Cyclopropyl-N-((1S,9S)-9-(cyclopropylmethyl)-5-fluoro-9-hydroxy-4-methyl-10,13-dioxo-2,3,9,10,13,15-hexahydro-1H,12H-benzo[de]pyrano[3′,4′:6,7]indolizino[1,2-b]quinolin-1-yl)-2-hydroxyacetamide] reads 9.27 nM.

Regarding `CC[C@@]1(O)C(=O)OCc2c1cc1n(c2=O)Cc2c-1nc1cc(F)c3c(c1c2CNC(=O)CO)CCC3` [Compound 24, (S)-N-((8-ethyl-4-fluoro-8-hydroxy-9,12-dioxo-2,3,8,9,12,14-hexahydro-1H,11H-cyclopenta[f]pyrano[3′,4′:6,7]indolizino[1,2-b]quinolin-15-yl)methyl)-2-hydroxyacetamide], the IC50 is 5.79 nM. The same measure, in the same setting: the value for `CC[C@@]1(O)C(=O)OCc2c1cc1n(c2=O)Cc2c-1nc1cc(F)c3c(c1c2CNC(=O)[C@@H](C)O)CCC3` [Compound 26, (R)-N-(((S)-8-Ethyl-4-fluoro-8-hydroxy-9,12-dioxo-2,3,8,9,12,14-hexahydro-1H,11H-cyclopenta[f]pyrano[3′,4′:6,7]indolizino[1,2-b]quinolin-15-yl)methyl)-2-hydroxypropanamide] was 8.39 nM. Turning to `CC[C@@]1(O)C(=O)OCc2c1cc1n(c2=O)Cc2c-1nc1cc(F)c3c(c1c2CNC(=O)[C@@H](O)C1CC1)CCC3` [Compound 27, (S)-2-Cyclopropyl-N-(((S)-8-ethyl-4-fluoro-8-hydroxy-9,12-dioxo-2,3,8,9,12,14-hexahydro-1H,11H-cyclopenta[f]pyrano[3′,4′:6,7]indolizino[1,2-b]quinolin-15-yl)methyl)-2-hydroxyacetamide], the IC50 is 13.9 nM. Still for that read-out and setting: the result for `CC[C@@]1(O)C(=O)OCc2c1cc1n(c2=O)Cc2c-1nc1cc(F)c3c(c1c2CNC(=O)[C@H](O)C1CC1)CCC3` [Compound 28, (R)-2-Cyclopropyl-N-(((S)-8-ethyl-4-fluoro-8-hydroxy-9,12-dioxo-2,3,8,9,12,14-hexahydro-1H,11H-cyclopenta[f]pyrano[3′,4′:6,7]indolizino[1,2-b]quinolin-15-yl)methyl)-2-hydroxyacetamide] reads 15.1 nM.

Values taken from patent US20260184721A2, “FUSED RING COMPOUND, CONJUGATE THEREOF AND USE THEREOF” (Keymed Biosciences (Chengdu) Co., Ltd., priority 2022, published 2026).
